Results from paper PMC11705955, “Lack of activity of HIV-1 integrase strand-transfer inhibitors on recombinase activating gene (RAG) activity at clinically relevant concentrations” (Microbiology Spectrum, 2024).
Entries after “also recorded” stand apart in the source; their conditions may differ.

What was measured:
[1] = 5-day cytotoxicity assay with Cell Titer Glo readout, Expi293F; assay type: cell-based; conditions: human
Description: (§1) Supplemental Table S2. CC50 values for INSTIs in 5- day cytotoxicity as says with Cell Titer
(§2) Expi293F GALPC3 GALHEP HUH7 MRC5 MT4 PBMC PBMC
(§3) Kidney Prostate Hepatoma Hepatoma Lung T-cell line Primary Primary
(§4) (embryonic) cancer cell cell line cell line fibroblast cells

[2] = 5-day cytotoxicity assay with Cell Titer Glo readout, GALPC3; assay type: cell-based; conditions: human
Description: as §1, §2, §3, §4

[3] = 5-day cytotoxicity assay with Cell Titer Glo readout, GALHEPG2; assay type: cell-based; conditions: human
Description: as §1, §2, §3, §4

[4] = test system: murine mCherry-core RAG1 / mCherry-RAG2 V(D)J recombination in Expi293F cells; assay: Extrachromosomal cell-based V(D)J recombination assay (GFP reporter, flow cytometry); conditions: for Effect on percentage of GFP-positive cells / RAG recombination: across concentrations tested, 48 h post-transfection
Description: To further evaluate the effect of HIV-1 integrase inhibitors on RAG activity in a cellular context, we optimized a novel extrachromosomal cell-based V(D)J recombination assay, enabling assessment of multiple compounds in a dose–response manner by flow cytometry ([33]). The schematic of FL murine RAG1 and RAG2 proteins, including the active site residues (DDE motif) in RAG1 and catalytically essential core regions of each protein, are shown in Fig. 5A. The cell-based assay used vectors that encode for the core RAG1 protein (instead of the FL version) and FL murine RAG2 expressed as C-terminal fusions to mCherry, termed mCherry-core RAG1 and mCherry-RAG2. The core regions of each RAG protein are sufficient to catalyze V(D)J recombination, whereas the non-core regions function to regulate the recombination reaction ([13]). […] The consensus RSS used in this assay contains a conserved heptamer and nonamer separated by 12 or 23 non-conserved bp (12RSS and 23RSS) (Fig. 5B). A general schematic of the design for the plasmid substrate with the 12RSS and 23RSS orientations before and after V(D)J recombination is presented in Fig. 5C. More specifically, the plasmid substrate pMAXgfp-INV was designed with a 12RSS and a 23RSS flanking each side of the Pontellina plumata green fluorescent protein gene (termed maxGFP), where the gene is in an inverted orientation relative to the CMV promoter (Fig. 5D). The RSSs are positioned in a co-linear orientation, such that successful V(D)J recombination activity will result in inversion of the maxGFP gene to place it in a transcriptionally active orientation with resulting expression of GFP. Detection of GFP-expressing cells using microscopy and flow cytometry was used as a direct readout of V(D)J recombination activity.
For the recombination assay, the pMAXgfp-INV plasmid substrate and RAG1/RAG2 expression vectors (mCherry-core RAG1 and mCherry-RAG2) were transiently transfected into Expi293 cells in the absence or presence of integrase inhibitors and were assessed via microscopy and flow cytometry. The fluorescence signal from the mCherry-tag is used to assess transfection efficiency of RAG1/RAG2 vectors (Fig. 6A). We observed that transfection of the pMAXgfp-INV substrate into Expi293 cells with RAG1/RAG2 expression vectors yielded robust GFP expression 48 h post-transfection in the cells treated with vehicle control (0.1% dimethyl sulfoxide [DMSO]) (Fig. 6A). […] NU7026 inhibits double-strand break repair, which is a necessary step after DNA cleavage by RAG enzymes, and thus serves as an indirect inhibitor of RAG activity ([35]).
To test the effect of HIV-1 integrase inhibitors on V(D)J recombination activity, we optimized an extrachromosomal cell-based V(D)J recombination assay ([33]). Briefly, Expi293 cells were plated at 1 × 10^6 cells/mL in six-well plates in Gibco Expi293 expression media the day before transfection. The next day, the Expi293 cells were co-transfected with three separate vectors, pMAXgfp-INV plasmid substrate, mCherry-core RAG1, and mCherry-RAG2 expression vectors with a 4:1 transfection reagent:DNA ratio using ExpiFectamine 293 transfection reagent (Gibco). Vehicle or candidate inhibitors were added to cell samples 2 h after transfection, with six different concentrations of each inhibitor added to separate wells. Fivefold dilutions for each inhibitor starting from 10 µM were tested.
Experiments were performed with six separate inhibitors in at least three independent experiments. Two negative control conditions for recombination activity were performed in parallel and include (i) transfections in the presence of NU7026 at 30 and 50 µM (Abcam) and (ii) using a modified pMAXgfp-INV substrate containing two 12RSSs (instead of one 12RSS and one 23RSS) that is inefficiently recombined by the RAG proteins. Vehicle control (0.1% DMSO) served as the positive control for GFP expression. The fluorescence signal from the mCherry tag was used to assess transfection efficiency. […]

[5] = 5-day cytotoxicity assay with Cell Titer Glo readout, MRC5; assay type: cell-based; conditions: human
Description: as §1, §2, §3, §4

C[C@@H]1CCO[C@H]2Cn3cc(C(=O)NCc4ccc(F)cc4F)c(=O)c(O)c3C(=O)N12 [DTG, dolutegravir]
CC50 at 5 day [1]: 53.6 µM
CC50 at 5 day [2]: > 44.4 µM
CC50 at 5 day [3]: > 44.4 µM
Effect on percentage of GFP-positive cells / RAG recombination [4]: did not observe a reduction in percentage of GFP-positive cells; also recorded: do not show inhibitory activity
CC50 at 5 day [5]: 38.2 µM

C[C@H]1CO[C@@H]2Cn3cc(C(=O)NCc4ccc(F)cc4F)c(=O)c(O)c3C(=O)N12 [CAB, cabotegravir]
CC50 at 5 day [1]: > 100 µM
CC50 at 5 day [2]: > 44.4 µM
CC50 at 5 day [3]: 37.9 µM
Effect on percentage of GFP-positive cells / RAG recombination [4]: did not observe a reduction in percentage of GFP-positive cells; also recorded: do not show inhibitory activity
CC50 at 5 day [5]: 28.1 µM

COc1cc2c(cc1Cc1cccc(Cl)c1F)c(=O)c(C(=O)O)cn2[C@H](CO)C(C)C [EVG, elvitegravir]
CC50 at 5 day [1]: 32.5 µM
CC50 at 5 day [2]: 20.8 µM
CC50 at 5 day [3]: 9.02 µM
Effect on percentage of GFP-positive cells / RAG recombination [4]: do not show inhibitory activity
CC50 at 5 day [5]: 14.3 µM

Cc1nnc(C(=O)NC(C)(C)c2nc(C(=O)NCc3ccc(F)cc3)c(O)c(=O)n2C)o1 [RAL, raltegravir]
CC50 at 5 day ([1]; Expi293F, 5-day, Cell Titer Glo, read-out: CC50): > 100 µM
CC50 at 5 day ([2]; GALPC3, 5-day, Cell Titer Glo, read-out: CC50): > 44.4 µM
CC50 at 5 day ([3]; GALHEPG2, 5-day, Cell Titer Glo, read-out: CC50): > 44.4 µM
Effect on percentage of GFP-positive cells / RAG recombination [4]: did not observe a reduction in percentage of GFP-positive cells; also recorded: do not show inhibitory activity
CC50 at 5 day ([5]; MRC5, 5-day, Cell Titer Glo, read-out: CC50): > 44.4 µM

O=C(/C=C(\O)c1nnn[nH]1)c1c[nH]c2ccc(Cl)cc12 [p8, 5-CITEP]
CC50 at 5 day [1]: > 100 µM
CC50 at 5 day [2]: > 44.4 µM
CC50 at 5 day [3]: > 44.4 µM
IC50 ([4]; Mus musculus, Expi293F, compound added 2 h after transfection, read 48 h post-transfection, serum-free media, read-out: IC50 in cellular V(D)J recombination assay (% GFP-positive cells)): > 50 µM
CC50 at 5 day [5]: > 44.4 µM

O=C(NCc1c(F)cc(F)cc1F)c1cn2c(c(O)c1=O)C(=O)N1[C@H]3CC[C@H](C3)O[C@@H]1C2 [BIC, bictegravir]
CC50 at 5 day [1]: 46 µM
CC50 at 5 day [2]: > 44.4 µM
CC50 at 5 day [3]: 17.4 µM
Effect on percentage of GFP-positive cells / RAG recombination [4]: did not observe a reduction in percentage of GFP-positive cells; also recorded: do not show inhibitory activity
CC50 at 5 day [5]: > 44.4 µM
